Columns and labels:
[1] = test system: C57BL/ks diabetic (db/db) mice; experiment: Glucose-lowering (plasma glucose) in diabetic db/db mice; assay type: in vivo; conditions: for Change in Glucose (mg/dL) 6 H: vehicle 35.9; for Change in Glucose (mg/dL) 30 H: 30 h after initial dose, vehicle 79.6; for Change in Glucose (mg/dL) 54 H: 54 h after initial dose, vehicle 60.3; for reduction in plasma glucose relative to vehicle (control) (in words): oral
Method: (§1) Genetically altered obese diabetic mice (designated C57BL/ks diabetic or db/db) were purchased from the Jackson Laboratory (Bar Harbor, Me., USA), and served as experimental animals. Male animals between the ages of 8-9 weeks were employed in the studies described here. Animals were housed (4 mice/cage) under standard laboratory conditions at 22° C. and 50% relative humidity, and were maintained on a diet of Purina rodent chow and water ad libitum. Prior to treatment, blood was collected from the tail vein of each animal. Mice that had plasma glucose levels between 350 and 600 mg/dL were used. Each treatment group consisted of eight mice that were distributed so that the mean glucose levels were equivalent in each group at the start of the study. Db/db mice received, orally by gavage: the experimental compound administered at 62.5, 125, or 250 mg/kg/day (unless otherwise noted), or metformin administered at […] for 1-3 days. Test compounds were delivered in a liquid vehicle containing 0.25% (w/v) carboxymethyl-cellulose, 1% (v/v) Tween […] (polyoxyethylene sorbitan monosterate), and up to 10% (v/v) dimethyl sulfoxide (DMSO) in a volume of 10 ml/kg. Blood was sampled from the tail vein at three hours, six, eight, twenty-four, and thirty hours post-administration (the first administration) of the particular compound in non-fasted conditions. Experiments 3-5 also sampled blood at fifty-four hours post-administration (the first administration) of the particular compound in non-fasted conditions. Blood samples were analyzed for plasma glucose levels. Individual body weights and mean food consumption (each cage) were also measured daily.
The isolated test substances were prepared as described previously (vide supra). Metformin (1,1-dimethylbiguanide), carboxymethyl cellulose and Tween 60 were purchased from Sigma Chemical Co. (St. Louis, Mo., USA; catalog #'s D-5035, C-4888, and p-1629, respectively). Plasma glucose levels were determined colorimetrically using glucose oxidase (Sigma Chemical Co.; Sigma catalog #315). Significant differences between groups (comparing compound-treated to vehicle-treated) were evaluated using analysis of variance and Fisher's post-hoc test.
Vehicle, metformin (250 mg/kg) or enriched extract (1000 mg/kg) were given to db/db mice at 0(initial), 8, 24, 32, 48, 56, 72, 80, and 96 hours post initial dose.
Plasma glucose levels were measured at baseline, 3 (day 1), 51 hours (Day 3), and 99 hours (Day 5).

[2] = Body weights and food consumption in diabetic db/db mice; assay type: in vivo; conditions: for Food Intake (g/mouse) 0-48 h: vehicle 6.3; for Body weight (g/mouse) (mean) 48 hr: vehicle 39.5 ± 0.5
Method: as §1

[3] = 62.5 mg/kg q.d. oral at 0, 24, 48 h, Tables 4 and 6
[4] = 125 mg/kg q.d. oral at 0, 24, 48 h, Tables 4 and 6
[5] = 250 mg/kg q.d. oral at 0, 24, 48 h, Tables 4 and 6

## COc1cc(/C=C/c2ccccc2)c(C(=O)O)c(O)c1CC=C(C)C [Compound C, 3-hydroxy-4-(3-methyl-2-butenyl)-5-methoxystilbene-2-carboxylic acid]
[1]; 62.5 mg/kg q.d. oral at 0, 24, 48 h, 6 h after initial dose, Tables 4 and 6 (dose of row)
  Change in Glucose (mg/dL) 6 H: -18.6 mg/dL
[1]; [3]
  Change in Glucose (mg/dL) 30 H: -40.7 mg/dL
  Change in Glucose (mg/dL) 54 H: 65.4 mg/dL
[1]; 125 mg/kg q.d. oral at 0, 24, 48 h, 6 h after initial dose, Tables 4 and 6 (dose of row)
  Change in Glucose (mg/dL) 6 H: -34.3 mg/dL
[1]; [4]
  Change in Glucose (mg/dL) 30 H: -69.7 mg/dL
  Change in Glucose (mg/dL) 54 H: -60.4 mg/dL
[1]; 250 mg/kg oral, dosed at 0, 8 and 24 h, 3 h after initial dose, vehicle −8.0, Table 1
  Change in Glucose (mg/dL) 3 h: -10.4 mg/dL
[1]; 250 mg/kg oral, dosed at 0, 8 and 24 h, 6 h after initial dose, vehicle 64.5, Table 1
  Change in Glucose (mg/dL) 6 h: -8.4 mg/dL
[1]; 250 mg/kg oral, dosed at 0, 8 and 24 h, 8 h after initial dose, vehicle 79.5, Table 2
  Change in Glucose (mg/dL) 8 h: +4.5 mg/dL
[1]; 250 mg/kg oral, dosed at 0, 8 and 24 h, 24 h after initial dose, vehicle 18.6, Table 2
  Change in Glucose (mg/dL) 24 h: -122.8 mg/dL
[1]; 250 mg/kg q.d. oral at 0, 24, 48 h, 6 h after initial dose, Tables 4 and 6
  Change in Glucose (mg/dL) 6 H: -120.8 mg/dL
[1]; [5]
  Change in Glucose (mg/dL) 30 H: -221.4 mg/dL
  Change in Glucose (mg/dL) 54 H: -122.0 mg/dL
[1]; Table 8, 125 mg/kg, thirty hours after initial dosing, value = size of decline
  mean glucose levels declined from the baseline value: 12.2 mg/dL
[1]; Tables 1-2, 250 mg/kg, eight hours after initial dosing, value = size of rise
  mean glucose levels rose from the baseline values: 4.5 mg/dL
[1]; Tables 1-2, 250 mg/kg, six hours after initial dosing, value = size of decline
  mean glucose levels declined from the baseline value: 8.4 mg/dL
[1]; Tables 1-2, 250 mg/kg, thirty hours after dosing, value = size of rise
  mean glucose levels rose from the baseline value: 36.5 mg/dL
[1]; Tables 1-2, 250 mg/kg, twenty-four hours after initial dosing, value = size of decline
  mean glucose levels declined from the baseline values: 122.8 mg/dL
[1]; Tables 4 and 6, 125 mg/kg, six hours after initial dosing, value = size of decline
  mean glucose levels declined from the baseline value: 34.3 mg/dL
[1]; dose level of 250 mg/kg, Tables 1 and 2
  reduction in plasma glucose relative to vehicle (control) (in words): statistically significant reduction
[1]; dose levels of 62.5, 125, and 250 mg/kg, Tables 4 and 6
  reduction in plasma glucose relative to vehicle (control) (in words): statistically significant reduction
[2]; 62.5 mg/kg, 125 mg/kg, and 250 mg/kg, Tables 5 and 7
  adverse effect on food intake or body weight (in words): absence of any significantly adverse effect
[2]; 62.5 mg/kg, Tables 5 and 7
  Food Intake (g/mouse) 0-48 h: 5.9 g/mouse
  Body weight (g/mouse) (mean) 48 hr: 38.2 ± 0.5 g/mouse
[2]; 62.5 mg/kg, vehicle 39.2 ± 0.5, Tables 5 and 7
  Body weight (g/mouse) (mean) 0 h: 37.4 ± 0.4 g/mouse
[2]; 125 mg/kg, Tables 5 and 7
  Food Intake (g/mouse) 0-48 h: 5.6 g/mouse
  Body weight (g/mouse) (mean) 48 hr: 39.7 ± 0.3 g/mouse
[2]; 125 mg/kg, vehicle 39.2 ± 0.5, Tables 5 and 7
  Body weight (g/mouse) (mean) 0 h: 39.4 ± 0.4 g/mouse
[2]; 250 mg/kg
  food intake compared with the normal food intake range (5-6 g/day/mouse) (in words): less than that of the normal food intake range
[2]; 250 mg/kg, 0-24 h, vehicle 6.8, Table 3
  Food Intake (g/mouse) 0-24 h: 3.3 g/mouse
[2]; 250 mg/kg, Tables 5 and 7
  Food Intake (g/mouse) 0-48 h: 4.3 g/mouse
  Body weight (g/mouse) (mean) 48 hr: 38.4 ± 0.1 g/mouse
[2]; 250 mg/kg, vehicle 38.0 ± 0.8, Table 3
  Body weight (g/mouse) (mean) 0 h: 38.7 ± 0.8 g/mouse
[2]; 250 mg/kg, vehicle 39.2 ± 0.5, Tables 5 and 7
  Body weight (g/mouse) (mean) 0 h: 39.1 ± 0.8 g/mouse
[2]; 250 mg/kg, 24 hr, vehicle 37.8 ± 0.8, Table 3
  Body weight (g/mouse) (mean) 24 hr: 38.0 ± 0.7 g/mouse
[2]; 250 mg/kg, Table 3
  adverse effect on food intake or body weight (in words): absence of any significantly adverse effect

Source: US20020058701A1 (priority 2000, published 2002)
